Data on 41 compounds can be found in US10865201B2, “Bicyclic compounds useful as GPR120 modulators” (Valo Health, Inc., priority 2016, dated 2020).

In experiment [1] the target is T1, human GPR120 (Homo sapiens, UniProt Q5NUL3).
T1 construct: expressed in transfected cells; host or cells: CHO-K1 coexpressing Gα16 and mitochondrial apoaequorin
T1 sequence (Q5NUL3 1-361): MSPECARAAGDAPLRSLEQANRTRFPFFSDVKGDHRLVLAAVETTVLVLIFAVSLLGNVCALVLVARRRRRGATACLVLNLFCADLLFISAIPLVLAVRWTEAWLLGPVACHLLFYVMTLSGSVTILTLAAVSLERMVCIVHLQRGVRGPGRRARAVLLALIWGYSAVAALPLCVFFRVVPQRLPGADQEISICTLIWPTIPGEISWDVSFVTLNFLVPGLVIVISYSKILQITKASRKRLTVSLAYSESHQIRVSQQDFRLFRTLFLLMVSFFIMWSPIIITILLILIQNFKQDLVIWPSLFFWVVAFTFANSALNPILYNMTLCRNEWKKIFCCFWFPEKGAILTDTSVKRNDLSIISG
Briefly: Human GPR120 Calcium-Release Assay. The class given is cell-based. The following applies: short variant of human GPR120 in CHO-K1 cells coexpressing Gα16 and mitochondrial apoaequorin; luminescence; read-out: Ca2+ pEC50 (converted). From the text: This in vitro assay tests compounds' ability to activate heterologously expressed human GPR120 via G-protein coupling leading to generation of inositol 1,4,5-triphosphate and mobilization of intracellular calcium. This functional cellular assay is based on the luminescence of mitochondrial aequorin following intracellular Ca^2+ release. Aequorin is a photoprotein isolated from the jellyfish Aequorea victoria. The active protein is formed in the presence of molecular oxygen from apoaequorin and its cofactor coelenterazine. Binding of Ca^2+ to the active protein induces a conformational change, resulting in oxidation of coelenterazine and subsequent blue luminescence.
The short variant of the human GPR120 receptor (GenBank accession Number AAI01176) was stably expressed in a CHO-K1 cell line coexpressing Gα16 and mitochondrial apoaequorin.
Cells were grown to mid-log phase in culture media without antibiotics, were detached with PBS/EDTA, centrifuged and resuspended in assay buffer (DMEM-F12 medium with 15 mM HEPES pH 7.0 and 0.1% protease free BSA) at a concentration of 10^6 cells/mL. Cells were incubated at room temperature for at least 4 hours with 5 μM coelenterazine h.
Test compounds were dissolved in 100% DMSO to a concentration of 20 mM to provide stock solutions. Serial dilutions were performed from stock solutions in 100% DMSO to obtain intermediate concentrations 200-fold higher than the concentrations to be tested. Each sample was diluted 100-fold into assay buffer. 50 μl of these compound solutions were dispensed into each well of 96-well assay plates. The final concentration of compounds tested in the assay ranged from 5 nM to 100 μM. α-Linolenic acid was used as a reference compound. Each test was performed in duplicate.
To start the assay, 50 μl of cell suspension were added to each well of the assay plate. The resulting luminescence was recorded using a Hamamatsu Functional Drug Screening System 6000 (FDSS 6000), and raw data were expressed as relative light units (RLU).
(§1) To determine agonist potencies (EC50 values), non-linear least-squares curve fits of the raw data (RLU) were performed in the GraphPad Prism software package, using the 4-parameter model with variable Hill Slope:
Reported below in Table 1 are pEC50 values (pEC50=−log(EC50) from curve fit) for representative compounds of Formula I in this assay, Ca2+pEC50.

The target in experiment [2] is T2, human GPR120 (Homo sapiens, UniProt Q5NUL3).
T2 construct: host or cells: CHO-K1
The experiment in a line: Human GPR120 β-Arrestin Recruitment Assay. The following applies: CHO-K1 cells co-expressing ProLink-tagged human GPR120 and β-Arrestin 2/β-gal fusion; PathHunter; 90 minutes at 37° C.; read-out: β-Arr pEC50 (converted). The class given is cell-based.
Excerpt: This in vitro assay tests compounds' ability to activate intracellular signaling via β-Arrestin recruitment to heterologously expressed human GPR120. This functional cellular assay utilizes enzyme fragment complementation with β-galactosidase (β-gal) as a functional reporter (DiscoveRx PathHunter® β-Arrestin assay platform). The human GPR120 receptor (GenBank accession Number NM_181745) was fused in frame with the small enzyme fragment ProLink™ and co-expressed in CHO-K1 cells with a fusion protein of β-Arrestin 2 and the larger, N-terminal deletion mutant of β-gal. Activation by a GPR120 agonist stimulates binding of β-arrestin to the ProLink-tagged GPCR and forces complementation of the two enzyme fragments, resulting in the formation of an active β-gal enzyme. This interaction leads to an increase in enzyme activity that can be measured using chemiluminescent PathHunter® Detection Reagents.
One day prior to the assay, cells were seeded in a total volume of 20 μl of growth medium into white walled 384-well microplates and incubated at 37° C./5% CO2 overnight. On the day of the assay, growth medium was removed and 20 μl assay buffer (HBSS+10 mM HEPES+0.1% heat-inactivated BSA) were added to each well.
Test compounds were dissolved in 100% DMSO to a concentration of 10 mM to provide stock solutions. Serial dilutions were performed from stock solutions into assay buffer to obtain intermediate concentrations of 5-fold higher than the concentrations to be tested. 5 μl of the 5x compound solutions were added to the cells and the assay plates were incubated alt 37° C. for 90 minutes, The final concentration of compounds tested in the assay ranged from 1.5 nM to 100 μM. Following incubation, 12.5 μl of PathHunter® detection reagent were added to each well, and plates were incubated at room temperature for 60 minutes. Chemiluminescence was read using an EnVision plate reader (PerkinElmer), raw data were expressed as relative light units (RLU).
as §1
T2 sequence (Q5NUL3 1-377 isoform Q5NUL3-1): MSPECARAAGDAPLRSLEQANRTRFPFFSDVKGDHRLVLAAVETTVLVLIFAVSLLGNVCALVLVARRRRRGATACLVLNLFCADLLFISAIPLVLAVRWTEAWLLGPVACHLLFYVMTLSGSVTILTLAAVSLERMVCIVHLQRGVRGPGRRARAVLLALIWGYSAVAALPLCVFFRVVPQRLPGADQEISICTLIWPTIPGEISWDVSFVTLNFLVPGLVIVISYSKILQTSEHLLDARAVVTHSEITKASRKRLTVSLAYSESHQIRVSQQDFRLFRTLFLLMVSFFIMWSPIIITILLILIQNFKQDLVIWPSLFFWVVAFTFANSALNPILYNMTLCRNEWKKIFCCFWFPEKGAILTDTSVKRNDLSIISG
T2 sequence (P32121 whole entry partner): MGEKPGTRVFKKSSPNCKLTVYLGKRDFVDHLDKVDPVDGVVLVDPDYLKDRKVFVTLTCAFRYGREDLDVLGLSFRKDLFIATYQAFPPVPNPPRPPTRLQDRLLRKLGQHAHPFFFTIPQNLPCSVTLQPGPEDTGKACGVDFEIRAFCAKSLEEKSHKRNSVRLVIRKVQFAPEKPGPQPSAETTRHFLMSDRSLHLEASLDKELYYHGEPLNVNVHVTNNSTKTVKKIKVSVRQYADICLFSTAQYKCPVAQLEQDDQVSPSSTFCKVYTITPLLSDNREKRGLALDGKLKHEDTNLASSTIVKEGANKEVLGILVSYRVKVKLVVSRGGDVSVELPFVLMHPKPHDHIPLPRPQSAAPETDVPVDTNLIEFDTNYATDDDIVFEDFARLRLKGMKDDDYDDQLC
Reported below in Table 1 are pEC50 values (pEC50=−log(EC50) from curve fit) for compounds of Formula I in this assay, β-Arr pEC50.

The structures appear in SMILES notation.

For `O=S1(=O)c2ccc(Oc3ccccc3)cc2CN1Cc1ccccc1` [Compound 2], the EC50 on human GPR120 [1] is 1 µM; on human GPR120 [2] it was 0.501 µM.

Take `O=S1(=O)c2ccc(Oc3cccc(Cl)c3)cc2CN1Cc1ccccc1` [Compound 3]: the EC50 is 3.98 µM on human GPR120 [1] and 0.158 µM on human GPR120 [2].

Turning to `O=S1(=O)c2ccc(Oc3ccc(Cl)cc3)cc2CN1Cc1ccccc1` [Compound 4], the EC50 was 7.94 µM at human GPR120 [1] and 0.251 µM on human GPR120 [2].

As to `O=S1(=O)c2ccc(Oc3ccc(Cl)c(Cl)c3)cc2CN1Cc1ccccc1` [Compound 5], the EC50 at human GPR120 [2] was 1.58 µM.

Take `O=S1(=O)c2ccc(Oc3cccnc3)cc2CN1Cc1c(Cl)cccc1Cl` [Compound 6]: the EC50 at human GPR120 [2] is greater than 10 µM.

With `O=S1(=O)c2ccc(Oc3cccnc3)cc2CN1Cc1c(F)cccc1Cl` [Compound 7], the values for the EC50 on human GPR120 [1] and on human GPR120 [2] were 2 µM and 3.98 µM, respectively.

For the compound `O=S1(=O)c2ccc(Oc3cccnc3)cc2CN1Cc1ccccc1Cl` [Compound 8], at human GPR120 [2], the EC50 is 6.31 µM.

In the case of `O=S1(=O)c2ccc(Oc3cccnc3)cc2CN1Cc1cccc(Cl)c1` [Compound 9], the EC50 was 1.58 µM at human GPR120 [1] and 1.26 µM at human GPR120 [2].

For `O=S1(=O)c2ccc(Oc3cccnc3)cc2CN1Cc1ccc(Cl)cc1` [Compound 10], the results for the EC50 on human GPR120 [1] and on human GPR120 [2] were 2.51 µM and 3.16 µM, respectively.

In the case of `O=S1(=O)c2ccc(Oc3cccnc3)cc2CN1Cc1ccc(Cl)cc1Cl` [Compound 11], the EC50 is 3.98 µM on human GPR120 [1] and 7.94 µM on human GPR120 [2].

For the compound `CN1Cc2cc(Oc3cccnc3)ccc2S1(=O)=O` [Compound 12], on human GPR120 [2], the EC50 was greater than 31.6 µM.

On to `CC(c1ccccc1)N1Cc2cc(Oc3cccnc3)ccc2S1(=O)=O` (centres unmarked) [Compound 13], for which the EC50 on human GPR120 [2] was greater than 10 µM.

As to `O=S1(=O)c2ccc(OC3CC(F)(F)C3)cc2CN1Cc1ccccc1` [Compound 14], the EC50 at human GPR120 [1] was 20 µM; at human GPR120 [2], 12.6 µM.

For `O=S1(=O)c2ccc(OC3CCC3)cc2CN1Cc1ccccc1` [Compound 15], the EC50 at human GPR120 [1] is 0.794 µM; on human GPR120 [2], 0.501 µM.

As to `O=S1(=O)c2ccc(Oc3cccnc3)cc2CN1Cc1cc(OC(F)(F)F)ccc1Cl` [Compound 16], on human GPR120 [2], the EC50 was 3.16 µM.

Regarding `O=S1(=O)c2ccc(Oc3cccnc3)cc2CN1CCc1ccccc1` [Compound 17], on human GPR120 [2], the EC50 was greater than 10 µM.

As for `O=S1(=O)c2ccc(Oc3cccnc3)cc2CN1Cc1cccnc1` [Compound 19], the EC50 at human GPR120 [1] is 15.8 µM; on human GPR120 [2], 7.94 µM.

Turning to `O=S1(=O)c2ccc(Oc3cccnc3)cc2CN1Cc1ccncc1` [Compound 20], the EC50 at human GPR120 [1] is 10 µM; at human GPR120 [2] it was 3.16 µM.

`O=C(O)c1ccc(CN2Cc3cc(Oc4cccnc4)ccc3S2(=O)=O)cc1` [Compound 21]: the EC50 on human GPR120 [2] is greater than 31.6 µM.

As for `O=C(O)c1cccc(CN2Cc3cc(Oc4cccnc4)ccc3S2(=O)=O)c1` [Compound 22], the EC50 on human GPR120 [2] was greater than 31.6 µM.

As for `Cc1cc(Oc2cccnc2)cc2c1S(=O)(=O)N(Cc1ccccc1)C2` [Compound 23], the EC50 at human GPR120 [2] was 2 µM.

In the case of `O=S1(=O)c2ccc(Oc3cccnc3)cc2CN1c1ccccc1` [Compound 24], the EC50 is 2.51 µM at human GPR120 [1] and 7.94 µM at human GPR120 [2].

With `O=S1(=O)c2ccc(Oc3ccccc3)cc2CN1c1ccccc1` [Compound 25], the EC50 is 1.26 µM on human GPR120 [1] and 1 µM on human GPR120 [2].

In the case of `O=S1(=O)c2ccc(Oc3ccncc3)cc2CN1c1ccccc1` [Compound 26], at human GPR120 [2], the EC50 is greater than 31.6 µM.

On to `O=S1(=O)c2ccc(Oc3ccccn3)cc2CN1c1ccccc1` [Compound 27], for which, at human GPR120 [2], the EC50 was greater than 31.6 µM.

Consider `O=S1(=O)c2ccc(Oc3cccc(Cl)c3)cc2CN1c1ccccc1` [Compound 28], for which the EC50 at human GPR120 [1] is 39.8 µM; at human GPR120 [2], 0.794 µM.

As for `O=S1(=O)c2ccc(Oc3ccc(Cl)c(Cl)c3)cc2CN1c1ccccc1` [Compound 29], the values for the EC50 at human GPR120 [1] and on human GPR120 [2] were greater than 100 µM and greater than 31.6 µM, respectively.

Regarding `O=S1(=O)c2ccc(OC3CCC3)cc2CN1c1ccccc1` [Compound 30], the EC50 on human GPR120 [1] is greater than 100 µM; on human GPR120 [2], 2.51 µM.

`O=S1(=O)c2ccc(Oc3cccnc3)cc2CN1c1cccnc1` [Compound 31]: the EC50 on human GPR120 [2] was greater than 10 µM.

Take `O=S1(=O)c2ccc(Oc3cccnc3)cc2CN1c1cccc(Cl)c1` [Compound 32]: at human GPR120 [2], the EC50 is 1.58 µM.

For the compound `O=S1(=O)c2ccc(Oc3cccnc3)cc2CN1c1cccc(OC(F)(F)F)c1` [Compound 33], the EC50 on human GPR120 [2] was 5.01 µM.

For the compound `O=S1(=O)c2ccc(Oc3cccnc3)cc2CN1c1ccccn1` [Compound 34], the EC50 is 10 µM at human GPR120 [1] and 15.8 µM at human GPR120 [2].

`O=S1(=O)c2ccc(Oc3cccnc3)cc2CN1c1ccncc1` [Compound 35]: the EC50 on human GPR120 [2] is 12.6 µM.

As to `O=C(O)c1cccc(N2Cc3cc(Oc4cccnc4)ccc3S2(=O)=O)c1` [Compound 36], the EC50 at human GPR120 [2] was greater than 10 µM.

Turning to `O=S1(=O)c2ccc(Oc3ccc(Cl)cc3)cc2CN1c1ccccc1` [Compound 37], the EC50 at human GPR120 [2] was greater than 10 µM.

As for `O=S1(=O)c2ccc(OCc3ccccc3)cc2CN1c1ccccc1` [Compound 38], the EC50 at human GPR120 [2] is 5.01 µM.

For the compound `O=S1(=O)c2ccc(OCc3cccnc3)cc2CN1c1ccccc1` [Compound 40], the EC50 at human GPR120 [2] is greater than 31.6 µM.

In the case of `O=S1(=O)c2ccc(Oc3cccnc3)cc2CN1c1cc(OC(F)(F)F)ccc1Cl` [Compound 41], the EC50 at human GPR120 [2] is greater than 31.6 µM.

Take `O=S1(=O)c2ccc(Oc3cccnc3)cc2CN1C1CCC1` [Compound 44]: the EC50 at human GPR120 [2] was 12.6 µM.

In the case of `O=C1c2ccc(Oc3cccnc3)cc2CN1c1ccccc1` [Compound 45], the EC50 on human GPR120 [2] is greater than 10 µM.

Regarding `O=C1c2ccc(Oc3cccnc3)cc2CN1Cc1ccccc1` [Compound 46], the EC50 was 10 µM at human GPR120 [1] and 6.31 µM on human GPR120 [2].
